Reference: US12134611B2, “Compounds and compositions for treating conditions associated with NLRP activity” (Novartis AG, priority 2018, dated 2024)

biological target: T1, hNLRP3 (Homo sapiens, UniProt Q96P20); experiment: IL-1β production in PMA-differentiated THP-1 cells stimulated with gramicidin (hTHP-1 assay); assay type: cell-based; conditions: read-out: NLRP3 Antagonist, hNLRP3 (THP-1, IL-1b) Normalized: GeoMean IC50
T1 construct: THP-1 cells were purchased from the American Type Culture Collection; host or cells: THP-1 cells, PMA-differentiated, stimulated with gramicidin
Procedure: Procedure 1: IL-1β Production in PMA-Differentiated THP-1 Cells Stimulated with Gramicidin.
THP-1 cells were purchased from the American Type Culture Collection and sub-cultured according to instructions from the supplier. […] Prior to the experiment, compounds were dissolved in dimethyl sulfoxide (DMSO) to generate a 30 mM stock. […] DMSO was backfilled in the plate to achieve a final DMSO assay concentration of 0.37%. The plate was then sealed and stored at room temperature until required.
THP-1 cells were treated with PMA (Phorbol 12-myristate 13-acetate) (20 ng/ml) for 16-18 hours. On the day of the experiment the media was removed and adherent cells were detached with trypsin for 5 minutes.
Procedure 2: IL-1β Production in PMA-Differentiated THP-1 Cells Stimulated with Gramicidin.
THP-1 cells were purchased from the American Type Culture Collection and sub-cultured according to instructions from the supplier. […] Prior to the experiment THP-1 were treated with PMA (Phorbol 12-myristate 13-acetate) (20 ng/ml) for 16-18 hours. Compounds were dissolved in dimethyl sulfoxide (DMSO) to generate a 30 mM stock. On the day of the experiment the media was removed and adherent cells were detached with trypsin for 5 minutes. […] Final DMSO concentration was at 0.37%. Cells were incubated with compounds for 1 hour and then stimulated with gramicidin (5 μM) (Enzo) for 2 hours. Plates were then centrifuged at 340 g for 5 min. Cell free supernatant (40 μL) was collected using a 96-channel PlateMaster (Gilson) and the production of IL-1β was evaluated by HTRF (cisbio).
1. Experimental procedure
1.2 Compound Preparation • Prepare the 3-fold serial dilution of the compounds with DMSO in a 384-well LDV Microplate using TECAN EVO system to generate the compound source plate with 10 concentrations. Top concentration is 30 mM. FIG. 5 depicts the layout of the microplate.
FIG. 5 depicts the layout of the plates: HC: 100 μM CRID3 (MCC950)+5 μM gramicidin LC: 5 μM Gramicidin.
1.5 IL-1β Detection • 1) Homogenize the 5× diluent #5 with a vortex and add 1 volume of stock solution in 4 volumes of distilled water. • 2) Thaw 20× stock solution of anti-IL1β-Cryptate-antibody and anti-IL1β XL-antibody. […] 2. Data Analysis: • 1.

T1 sequence (Q96P20 whole entry): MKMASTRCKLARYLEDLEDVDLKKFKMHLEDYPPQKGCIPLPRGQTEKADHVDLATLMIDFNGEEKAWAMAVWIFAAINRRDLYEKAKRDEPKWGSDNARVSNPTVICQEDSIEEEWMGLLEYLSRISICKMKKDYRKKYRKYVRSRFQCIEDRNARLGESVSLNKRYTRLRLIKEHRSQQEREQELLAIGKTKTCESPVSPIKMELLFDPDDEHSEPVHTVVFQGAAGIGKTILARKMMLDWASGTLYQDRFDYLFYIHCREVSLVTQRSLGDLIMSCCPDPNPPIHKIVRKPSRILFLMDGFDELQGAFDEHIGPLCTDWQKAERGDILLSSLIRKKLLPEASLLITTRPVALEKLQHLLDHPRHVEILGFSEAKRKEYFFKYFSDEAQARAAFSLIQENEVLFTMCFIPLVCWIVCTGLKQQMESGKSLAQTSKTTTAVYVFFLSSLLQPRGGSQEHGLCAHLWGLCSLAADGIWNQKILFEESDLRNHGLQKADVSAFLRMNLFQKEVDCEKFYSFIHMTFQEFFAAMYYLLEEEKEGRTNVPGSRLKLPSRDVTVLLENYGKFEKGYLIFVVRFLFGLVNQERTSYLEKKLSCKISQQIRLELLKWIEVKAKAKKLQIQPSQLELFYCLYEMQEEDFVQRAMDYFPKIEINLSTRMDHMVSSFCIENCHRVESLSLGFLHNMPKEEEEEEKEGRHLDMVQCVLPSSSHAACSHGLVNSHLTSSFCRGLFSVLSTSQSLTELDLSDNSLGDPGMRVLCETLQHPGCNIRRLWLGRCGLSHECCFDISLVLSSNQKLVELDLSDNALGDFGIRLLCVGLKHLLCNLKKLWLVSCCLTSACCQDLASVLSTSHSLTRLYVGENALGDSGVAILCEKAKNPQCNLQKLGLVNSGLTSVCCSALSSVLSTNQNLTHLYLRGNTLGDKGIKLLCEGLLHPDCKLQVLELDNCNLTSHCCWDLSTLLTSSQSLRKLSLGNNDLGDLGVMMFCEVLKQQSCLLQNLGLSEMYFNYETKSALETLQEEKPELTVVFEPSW

Row | IC50 [µM] | SMILES
1 | > 30 | O=C(N=S1(=O)NCc2ccccc21)Nc1c2c(cc3c1CCC3)CCC2 (single isomer, unassigned) [Compound 130a, 1-(1,2,3,5,6,7-hexahydro-s-indacen-4-yl)-3-[(1S or 1R)-1-oxo-2,3-dihydro-1-^λ-6,2-benzothiazol-1-ylidene]urea]
2 | 1 to 5 | O=C1CCS(=O)(=NC(=O)Nc2c3c(cc4c2CCC4)CCC3)N1 (single isomer, unassigned) [Compound 131a, (R or S)-1-(1,2,3,5,6,7-hexahydro-s-indacen-4-yl)-3-(1-oxido-3-oxo-1l6-isothiazolidin-1-ylidene)urea]
3 | 1 to 5 | O=C(N=S1(=O)CC2(COC2)C(=O)N1)Nc1c2c(cc3c1CCC3)CCC2 (single isomer, unassigned) [Compound 132a, (S or R)-1-(1,2,3,5,6,7-hexahydro-s-indaccn-4-yl)-3-(6-oxido-8-oxo-2-oxa-6l6-thia-7-azaspiro[3.4]octan-6-ylidene)urea]
4 | 5 to 30 | O=C(N=S1(=O)CC2(COC2)C(=O)N1)Nc1c2c(cc3c1CCC3)CCC2 (single isomer, unassigned) [Compound 132b, (R or S)-1-(1,2,3,5,6,7-hexahydro-s-indacen-4-yl)-3-(6-oxido-8-oxo-2-oxa-6l6-thia-7-azaspiro[3.4]octan-6-ylidene)urea]
5 | 5 to 30 | CN(C)Cc1ccc2c(c1)S(=O)(=NC(=O)Nc1c3c(cc4c1CCC4)CCC3)NC2 (single isomer, unassigned) [Compound 133a, (R or S)-1-(6-((dimethylamino)methyl)-1-oxido-2,3-dihydro-1l4-benzo[d]isothiazol-1-ylidene)-3-(1,2,3,5,6,7-hexahydro-s-indacen-4-yl)urea]
6 | > 30 | CN(C)Cc1ccc2c(c1)S(=O)(=NC(=O)Nc1c3c(cc4c1CCC4)CCC3)NC2 (single isomer, unassigned) [Compound 133b, (S or R)-1-(6-((dimethylamino)methyl)-1-oxido-2,3-dihydro-1l4-benzo[d]isothiazol-1-ylidene)-3-(1,2,3,5,6,7-hexahydro-s-indacen-4-yl)urea]
7 | > 30 | COC(=O)c1ccc2c(c1)S(=O)(=NC(=O)Nc1c3c(cc4c1CCC4)CCC3)NC2=O (single isomer, unassigned) [Compound 134a, methyl (R or S)-1-(((1,2,3,5,6,7-hexahydro-s-indacen-4-yl)carbamoyl)imino)-3-oxo-2,3-dihydro-1H-1l4-benzo[d]isothiazole-6-carboxylate 1-oxide]
8 | 5 to 30 | COC(=O)c1ccc2c(c1)S(=O)(=NC(=O)Nc1c3c(cc4c1CCC4)CCC3)NC2=O (single isomer, unassigned) [Compound 134b, methyl (S or R)-1-(((1,2,3,5,6,7-hexahydro-s-indacen-4-yl)carbamoyl)imino)-3-oxo-2,3-dihydro-1H-1l4-benzo[d]isothiazole-6-carboxylate 1-oxide]
9 | 0.2 to 1 | CC(C)(O)c1ccc2c(c1)S(=O)(=NC(=O)Nc1c3c(nc4c1CCC4)CCC3)NC2=O (single isomer, unassigned) [Compound 136, (S or R)-1-(1,2,3,5,6,7-hexahydrodicyclopenta[b,e]pyridin-8-yl)-3-(6-(2-hydroxypropan-2-yl)-1-oxido-3-oxo-2,3-dihydro-1l4-benzo[d]isothiazol-1-ylidene)urea]
10 | 0.2 to 1 | CC(C)(O)c1ccc2c(c1)S(=O)(=NC(=O)Nc1c3c(nc4c1CCC4(C)C)CCC3)NC2=O (single isomer, unassigned) [Compound 137, (S or R)-1-(3,3-dimethyl-1,2,3,5,6,7-hexahydrodicyclopenta[b,e]pyridin-8-yl)-3-(6-(2-hydroxypropan-2-yl)-1-oxido-3-oxo-2,3-dihydro-1l4-benzo[d]isothiazol-1-ylidene)urea]
